Experimental data from patent US9556152B2, “Heterocyclic amides as kinase inhibitors” (GlaxoSmithKline Intellectual Property Development Limited, priority 2013, dated 2017).
Where two headings read alike, the source gives them in different places.

Assays:
[1] = test system: mouse TNF and zVAD induced temperature loss in mice; assay: TNF/zVAD-driven systemic inflammatory response syndrome model (short modality), temperature loss; format: in vivo
Description: (§1) TNF (or TNF/zVAD) induced manifestations include temperature loss, the production of numerous cytokines (including IL-6, IL-1b, MIP1β and MIP2) in the periphery, liver and intestinal inflammation and an increase of markers of cellular (LDH and CK) and liver damage (AST and ALT) in the serum.
Each test compound is run through the TNF/zVAD and TNF (alone) versions of the model. For example, mice (7 mice per group) were orally pre-dosed with vehicle or test compound at 50 mg/kg 15 minutes before i.v. administration of mouse TNF (30 m/mouse) and zVAD (0.4 mg/mouse) simultaneously. Temperature loss in the mice was measured by rectal probe. The study was terminated when the control group lost 7 degrees, per our IACUC protocol. […] All data are shown as means±standard error of the mean.

[2] = test system: mouse TNF induced temperature loss in mice; assay: TNF (alone)-driven systemic inflammatory response syndrome model (long modality), temperature loss; format: in vivo; conditions: oral pre-dose 50 mg/kg 15 minutes before i.v. mouse TNF
Description: as §1
In addition to the TNF/zVAD model, each compound is also tested in a TNF alone model. For the TNF (alone) version of the model, mice (7 mice per group) were orally pre-dosed with vehicle or test compound at 50 mg/kg 15 minutes before i.v. administration of mouse TNF (30 m/mouse). […] All data are shown as means±standard error of the mean.

[3] = biological target: T1, RIP1 kinase (GST-RipK1 (1-375)) (Homo sapiens, UniProt Q13546)
T1 sequence (Q13546 1-375): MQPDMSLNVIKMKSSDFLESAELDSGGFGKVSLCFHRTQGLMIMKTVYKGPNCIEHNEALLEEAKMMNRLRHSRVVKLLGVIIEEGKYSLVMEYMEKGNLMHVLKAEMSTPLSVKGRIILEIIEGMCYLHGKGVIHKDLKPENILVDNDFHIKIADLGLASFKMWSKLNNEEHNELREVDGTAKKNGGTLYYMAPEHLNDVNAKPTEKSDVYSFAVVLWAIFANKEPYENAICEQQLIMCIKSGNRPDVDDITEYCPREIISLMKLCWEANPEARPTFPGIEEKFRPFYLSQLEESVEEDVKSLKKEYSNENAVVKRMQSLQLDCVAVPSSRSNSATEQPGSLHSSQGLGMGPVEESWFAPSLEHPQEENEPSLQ
Description: A fluorescent polarization based binding assay was developed to quantitate interaction of novel test compounds at the ATP binding pocket of RIP1, by competition with a fluorescently labeled ATP competitive ligand. […] Following the incubation, 5 ul of the fluorescent labeled ligand solution, was added to each reaction, at twice the final assay concentration, and incubated at room temperature for at least 15 minutes. Finally, samples were read on an instrument capable of measuring fluorescent polarization. Test compound inhibition was expressed as percent (%) inhibition of internal assay controls. For concentration response experiments, normalized data were fit and pIC50s determined using conventional techniques.

[4] = oral pre-dose 30 mg/kg 15 minutes before i.v. mouse TNF and zVAD
[5] = oral pre-dose 10 mg/kg 15 minutes before i.v. mouse TNF and zVAD
[6] = mean pIC50, FP competition binding, GST-RipK1 (1-375) 10 nM, fluorescent ligand 5 nM, mean of minimum 2 experiments
[7] = average pIC50 after continued testing, FP competition binding, updated average after continued testing

SMILES	% Inhibition [1, 4] [%]	IC50 [3, 6] [nM]	other results
CN1C(=O)[C@@H](NC(=O)c2cc(Cc3ccccc3)n[nH]2)COc2ccc(Br)cc21 [Example 20, (S)-3-benzyl-N-(7-bromo-5-methyl-4-oxo-2,3,4,5-tetrahydrobenzo[b] [1,4]oxazepin-3-yl)-1H-pyrazole-5-carboxamide]	52	–	% Inhibition [2]: 51%
CN1C(=O)[C@@H](NC(=O)c2ncn(Cc3ccccc3)n2)COc2ccccc21 [Example 45, (S)-1-benzyl-N-(5-methyl-4-oxo-2,3,4,5-tetrahydrobenzo[b] [1,4]oxazepin-3-yl)-1H-1,2,4-triazole-3-carboxamide]	–	–	% Inhibition [1, 5]: 91%
Cc1ccc(Cc2cc(C(=O)N[C@H]3CNc4ccccc4N(C)C3=O)n[nH]2)cc1 [Example 64, (S)-N-(1-methyl-2-oxo-2,3,4,5-tetrahydro-1H-benzo[b][1,4]diazepin-3-yl)-5-(4-methylbenzyl)-1H-pyrazole-3-carboxamide]	62	–	–
CN1C(=O)[C@@H](NC(=O)c2nnc(Cc3ccccc3)[nH]2)COc2cccc(F)c21 [Example 91, (S)-5-benzyl-N-(6-fluoro-5-methyl-4-oxo-2,3,4,5-tetrahydrobenzo[b] [1,4]oxazepin-3-yl)-4H-1,2,4-triazole-3-carboxamide]	–	~25.1	–
CN1C(=O)[C@@H](NC(=O)c2cc(Oc3ccccc3)ccn2)COc2ccccc21 [Example 97, (S)-N-(5-methyl-4-oxo-2,3,4,5-tetrahydrobenzo[b] [1,4]oxazepin-3-yl)-4-phenoxypicolinamide]	70	–	–
Cc1cc(F)c2c(c1)OC[C@H](NC(=O)c1nnc(CC3CCCC3)[nH]1)C(=O)N2 [Example 102, (S)-5-(cyclopentylmethyl)-N-(6-fluoro-8-methyl-4-oxo-2,3,4,5-tetrahydrobenzo[b] [1,4]oxazepin-3-yl)-4H-1,2,4-triazole-3-carboxamide]	–	~15.8	–
CN1C(=O)[C@@H](NC(=O)c2cc(Cc3ccccc3)n[nH]2)COc2ccccc21 [Example 108, (S)-3-benzyl-N-(5-methyl-4-oxo-2,3,4,5-tetrahydrobenzo[b] [1,4]oxazepin-3-yl)-1H-pyrazole-5-carboxamide]	56	–	–
CN1C(=O)[C@@H](NC(=O)c2cc(Cc3ccc(F)cc3)n[nH]2)COc2ccccc21 [Example 125, (S)-3-(4-fluorobenzyl)-N-(5-methyl-4-oxo-2,3,4,5-tetrahydrobenzo[b] [1,4]oxazepin-3-yl)-1H-pyrazole-5-carboxamide]	25	–	–
O=C(N[C@H]1CCc2cc(Cl)ccc2NC1=O)c1nnc(Cc2ccccc2)[nH]1 [Example 161, (S)-5-benzyl-N-(7-chloro-2-oxo-2,3,4,5-tetrahydro-1H-benzo[b]azepin-3-yl)-4H-1,2,4-triazole-3-carboxamide]	–	~12.6	% Inhibition ([1]; oral pre-dose 50 mg/kg 15 minutes before i.v. mouse TNF and zVAD): 85%; % Inhibition [2]: 82%; IC50 [3, 7]: 20 nM
O=C(N[C@H]1CCc2cc(Br)ccc2NC1=O)c1nnc(Cc2ccccc2)[nH]1 [Example 163, (S)-5-benzyl-N-(7-bromo-2-oxo-2,3,4,5-tetrahydro-1H-benzo[b]azepin-3-yl)-4H-1,2,4-triazole-3-carboxamide]	–	~12.6	% Inhibition [1, 5]: 73%
Cc1nnc(-c2ccc3c(c2)N(C)C(=O)[C@@H](NC(=O)c2nnc(Cc4ccccc4)[nH]2)CO3)o1 [Example 169, (S)-5-benzyl-N-(5-methyl-7-(5-methyl-1,3,4-oxadiazol-2-yl)-4-oxo-2,3,4,5-tetrahydrobenzo[b][1, 4]oxazepin-3-yl)-4H-1,2,4-triazole-3-carboxamide]	–	~63.1	IC50 [3, 7]: 50.1 nM
Cc1ccc(Cc2cc(C(=O)N[C@H]3COc4ccccc4N(C)C3=O)[nH]n2)cc1 [Example 176, (S)-N-(5-methyl-4-oxo-2,3,4,5-tetrahydrobenzo[b] [1,4]oxazepin-3-yl)-5-(4-methylbenzyl)-1H-pyrazole-3-carboxamide]	34	–	–
CN1C(=O)[C@@H](NC(=O)c2cc(Cc3ccccc3)[nH]n2)CNc2ccccc21 [Example 190, (S)-5-benzyl-N-(1-methyl-2-oxo-2,3,4,5-tetrahydro-1H-benzo[b] [1,4]diazepin-3-yl)-1H-pyrazole-3-carboxamide]	85	–	% Inhibition [2]: 56%
CN1C(=O)[C@@H](NC(=O)c2cc(Cc3ccccc3)on2)CNc2ccccc21 [Example 235, (S)-5-benzyl-N-(1-methyl-2-oxo-2,3,4,5-tetrahydro-1H-benzo[b] [1,4]diazepin-3-yl)isoxazole-3-carboxamide]	58	–	% Inhibition [2]: 73%
O=C(N[C@H]1CCc2ccccc2NC1=O)c1cc(Cc2ccccc2)on1 [Example 236, (S)-5-benzyl-N-(2-oxo-2,3,4,5-tetrahydro-1H-benzo[b]azepin-3-yl)isoxazole-3-carboxamide]	23	–	–
